Assay results from patent US11559528B2, “BACE1 inhibition for the treatment of cancer” (The Cleveland Clinic Foundation, priority 2019, dated 2023).
“Also recorded” adds a separate entry of the source.

Key:
GBM xenografts (T387) = test: Intracranial GBM xenografts from T387 glioma stem cells; format: in vivo, mouse
Description: FIG. 13, panels A-C. BACE1 Inhibition by MK-8931 Converts M2 TAMs into M1 Macrophages in GBM Xenografts. (A and B) Density analysis of M2 TAMs by immunofluorescent staining of the M2 TAM marker (CD163 or FIZZ1) and the total TAM marker IBA1 and in GBM xenografts (T387) treated with MK-8931 or vehicle control. GBM xenografts were established by implantation of glioma stem cells (T387) through intracranial injection. […] Representative immunofluorescent images (A) showing M2 TAMs (CD163′ or FIZZ1^+, in red) and total TAMs (IBA1^+, in green) in the MK-8931-treated or control GBM xenografts. […] (C and D) Density analysis of M1 TAMs by immunofluorescent staining of the M TAM marker (HLA-DR or CD11c) and the total TAM marker IBA1 and in GBM xenografts (T387) treated with MK-8931 or vehicle control. […] Representative immunofluorescent images (C) showing M1 TAMs (HLA-DR^+ or CD11c^+, in red) and total TAMs (IBA1^+, in green) in the MK-8931-treated or control GBM xenografts. […] Scale bars represent 3 μM. Ctl: Control; MK: MK-8931.
(A-C) A preclinical trial of MK-8931 for GBM treatment in GSC-derived xenograft models. […] When humane endpoints occur, mouse was anesthetized and brain bearing tumor was harvested. Representative bioluminescent images (A) of intracranial GBM xenografts treated with MK-8931 or the vehicle control on day 7 (before treatment), day 17 and day 27 (treatment for 10 and 20 days) are shown. […] (D and E) In vivo phagocytosis of TAMs against human glioma cells in GBM xenografts treated with MK-8931 or the vehicle control. […] Representative images (D) showing in vivo TAM phagocytosis as the inclusion body of a glioma cell (TRA-1-85+, in red) within a TAM (IBA1^+, in green) in the MK-8931 treated GBM xenografts but not in the control tumors. […] (F and G) Detection of apoptosis by immunofluorescent staining of cleaved caspase-3 the GSC-derived xenografts treated with MK-8931 or the vehicle control. […] (H and I) Vessel density analysis by immunofluorescent staining of CD31 in the GSC-derived xenografts treated with MK-8931 or the vehicle control.

[1] = tested on: iPSC-derived M2 macrophages; test: Fluorescent phagocytosis screening assay, iPSC-derived M2 macrophages against glioma cells; format: cell-based, human
H1002 lung cancer cells = test: Subcutaneous lung cancer xenografts (H1002); format: in vivo, mouse; settings: 50 mg/kg once daily oral gavage, from two weeks after inoculation; p<0.01
Method: (§1) (A) Effects of BACE1 inhibitors on lung cancer cell proliferation. H1002 and H146 lung cancer cells were treated with the indicated concentrations of the BACE1 inhibitor AZD3293, MK-8931, AZD3839, or PF-06751979 (PF) for 72 hours. Cell viability was assessed by cell titer assay (n=3). (B-D) A preclinical trial of MK-8931 for lung cancer treatment in xenograft models. H1002 lung cancer cells (5×106) were transplanted into mouse right flank through subcutaneous injection to establish subcutaneous lung cancer xenografts. […] Tumors dissected from mice of each group were photographed (C) and weighed (D). […] Data are shown as mean SEM. p **<0.01, Student's t-test.

[2] = tested on: U937-derived M2 macrophages; test: Immunoblot of macrophage markers in U937-derived M2 macrophages; parameters: expression of M2 macrophage markers (CD163 and ARG1): dose or concentration left out as unconfirmed
Method: In brief, U937 cells were primed by PMA (5 nM) for two days to generate M0 macrophages and then incubated with IL4 (20 ng/mL), IL10 (20 ng/mL), and TGFβ (20 ng/mL) for three days to produce M2-like macrophages. (B) Immunoblot analyses of BACE1, the M2 macrophage markers (CD163 and ARG1), and the total macrophage marker IBA1 in U937 monocytes and the U937-derived M2 macrophages expressing shRNAs against BACE1 (shBACE1) or non-targeting sequence (NT). […] (D) Immunoblot analyses of the M2 macrophage markers (CD163 and ARG1), the M1 macrophage markers (iNOS and HLA-DR), and the total macrophage marker IBA1 in the U937-derived M2 macrophages expressing shRNAs against BACE1 (shBACE1: #1 or #2) or non-targeting control (shNT). The U937-derived M2 macrophages were transduced with shBACE1 shNT through lentiviral infection.
In brief, U937 cells grown in a 10-cm tissue culture dish were primed by PMA (5 nM) for two days to produce M0 macrophages. Then the M0 macrophages were further induced by IL4 (20 ng/mL, Peprotech, 200-04), IL10 (20 ng/mL, Peprotech, 200-10), and TGFβ (20 ng/mL, Peprotech, 200-21) for three days to generate M2 macrophages.
In brief, cells were lysed with the RIPA buffer [50 mM TrisHCl (pH7.4), 150 mM NaCl, 2 mM EDTA, 1% (v/v) NP-40, 0.1% (w/v) SDS, protease inhibitor (one tablet per 10 mL RIPA buffer, Roche)] for 20 minutes on ice. […] The lysates were collected and subjected to SDS-PAGE and blotted onto the PVDF membranes (ASI, XR730). After blockade with 5% (w/v) non-fat milk (RPI, M17200) in TBST, the membranes were incubated with primary antibodies overnight at 4° C. After the incubation of the first antibodies, the membranes were washed three times with TBST for ten minutes each. Then, the membranes were incubated with the second HRP-linked antibodies in the 5% milk for one hour at room temperature.

[3] = tested on: H1002 and H146 lung cancer cells; test: Cell titer viability assay on lung cancer cells; format: cell-based, human; settings: indicated concentrations, 72 hours, n=3
Method: as §1

[4] = tested on: GBM xenografts derived from T4121 GSCs; test: Intracranial GBM xenografts from T4121 glioma stem cells; format: in vivo, mouse
T4121 GSCs = test: Tumorsphere formation assay; format: cell-based, human; settings: MK-8931 50 μg/mL
Method: FIG. 16, panels A-E. MK-8931 Treatment Had Little Effect on Glioma Stem Cells. (A and B) Tumorsphere formation assay to examine the effect of MK-8931 treatment on glioma stem cells (GSCs). Representative images (A) of tumorsphere derived from T4121 GSCs treated with MK-8931 (50 μg/mL) or the vehicle control. Quantifications (B) show the number and size of tumorsphere derived from T4121 GSCs treated with MK-8931 (50 μg/mL) or the control. Data are shown as mean±SEM. NS (not significant)≥0.05, Student's t-test. […] GAPDH was blotted as loading control. (D) Immunoblot analysis of the apoptotic markers cleaved-PARP and cleaved caspase-3 in GSCs (T387 and T4121) treated with MK-8931 (50 μg/mL), etoposide (Etop, 1 μM), or the vehicle control for different time as indicated. GAPDH was blotted as loading control. […] Ctl: Control; Etop: Etoposide. (E) Cell viability assay to examine the effect of MK-8931 treatment on proliferation of glioma stem cells. […] Data are shown as mean±SEM. NS (not significant)≥0.05, Student's t-test.
Tumorsphere formation assay was performed as described in our previous study (Shi et al., 2018). Glioma cells (1000 cells) were plated on the one well of a 96-well plate and maintained in the stem cell medium. […] The sizes and numbers of the tumor-sphere in the control and MK-8931 groups were furthered analyzed with ImageJ.

[5] = cited from earlier work
[6] = 30 mg/kg once daily oral gavage two weeks, p<0.001
[7] = 30 mg/kg once daily oral, p<0.01
[8] = 30 mg/kg once daily oral, p<0.05
[9] = 0, 5, 10, 25, 50, and 100 μg/mL for three days
[10] = 50 μg/mL for 0, 12, 24, 48, 72, or 96 hours

CN1C(N)=N[C@](C)(c2cc(NC(=O)c3ccc(F)cn3)ccc2F)CS1(=O)=O [MK-8931]
density of M1 TAMs (HLA-DR+/IBA1+ or CD11c+/IBA1+) (GBM xenografts (T387); [6]): significantly increased density of M1 TAMs
density of M2 TAMs (CD163+/IBA1+ or FIZZ1+/IBA1+) (GBM xenografts (T387); [6]): significantly reduced density of M2 TAMs
tumor growth (mean bioluminescence) (GBM xenografts (T387); 30 mg/kg once daily oral, day 7, 17 and 27): Suppressed GBM Tumor Growth
survival (Kaplan-Meier) (GBM xenografts (T387); 30 mg/kg once daily oral, log-rank p<0.05): significantly extended the survival of animals bearing the GBM xenografts
apoptosis (cleaved caspase-3+ cells) (GBM xenografts (T387); [7]): significantly increased apoptosis
in vivo TAM phagocytosis (inclusion bodies) (GBM xenografts (T387); [7]): promoted TAM phagocytosis
proliferative cells (Ki-67+) (GBM xenografts (T387); [7]): significantly reduced proliferative cells
GSC population (SOX2+ cells) (GBM xenografts (T387); [8]): significant reduced GSCs
vessel density (CD31) (GBM xenografts (T387); [8]): significantly reduced vessel density
macrophage phagocytosis against cancer cells [1]: promotes macrophage phagocytosis against cancer cells
phagocytosis of iPSC-derived macrophages against human glioma cells (inclusion bodies) ([1]; MK-8931 50 μg/mL two days, T4121 tdTomato cells co-incubated two hours, p<0.001 vs vehicle): potently induced phagocytosis of iPSC-derived macrophages
screen of drug libraries and known inhibitors for promoters of macrophage phagocytosis: hit ([1]; glioma cells and lung ADC cells): hits
tumor growth (tumor weight) (H1002 lung cancer cells): markedly inhibited lung tumor growth
M1 marker expression (iNOS and HLA-DR), dose series [2, 9]: induced M1 marker expression
M2 marker expression (CD163 and ARG1), dose series [2, 9]: inhibited M2 marker expression in a dose-dependent manner
M1 marker expression (iNOS and HLA-DR), time course [2, 10]: induced M1 marker expression in a time-dependent fashion
M2 marker expression (CD163 and ARG1), time course [2, 10]: inhibited M2 marker expression
M2 to M1 switch with ectopic expression of constitutively activated STAT3 (STAT3-C) ([2]; MK-8931 50 μg/mL three days, STAT3-C-Flag vs vector): attenuated the M2 to M1 switch induced by MK-8931 treatment
expression of total macrophage marker IBA1 ([2]; MK-8931 (50 g/mL) three days): little effect
expression of M2 macrophage markers (CD163 and ARG1) ([2]; MK-8931 three days): reduced expression of the M2 macrophage markers
lung cancer cell proliferation (cell viability) [3]: suppressed lung cancer cell proliferation
IL1β expression (IHC intensity) [4, 6]: significantly induced IL1β expression
IL10 expression (IHC intensity) [4, 6]: significantly reduced IL10 expression
TGF-β expression (IHC intensity) [4, 6]: significantly reduced TGF-β expression
TNFα expression (IHC intensity) [4, 6]: significantly induced TNFα expression
tumor growth (mean bioluminescence) ([4]; 30 mg/kg/daily oral, Days 7, 14, and 21): significantly inhibited tumor growth of GBM xenografts
survival (Kaplan-Meier) ([4]; 30 mg/kg/daily oral, log-rank p<0.01): significantly extended the survival of mice bearing the GBM tumors
apoptosis (cleaved caspase-3+ cells) ([4]; 30 mg/kg/daily oral, p<0.001): significantly increased apoptosis
GSC population (SOX2+ cells) ([4]; 30 mg/kg/daily oral, p<0.01): significantly reduced GSCs
proliferative cells (Ki-67+) ([4]; 30 mg/kg/daily oral, p<0.01): significantly reduced proliferative cells
vessel density (CD31) ([4]; 30 mg/kg/daily oral, p<0.01): significantly reduced vessel density
number and size of tumorspheres (T4121 GSCs): did not affect GSC sphere formation
efficacy in phase 3 AD clinical trials ([5]; AD patients): ineffectiveness in controlling AD progression or improving life quality of AD patients
tolerability / safety in AD clinical trials ([5]; patients, Phase I to Phase III): well-tolerated for patients; also recorded: very safe in the clinical trials for AD treatment; also recorded: well-tolerated in human and showed little toxic effect; also recorded: very safe for patients
